Data as given in article PMC7174758, “Synthesis and Biological Evaluation of HDAC Inhibitors With a Novel Zinc Binding Group” (Frontiers in Chemistry, 2020).

Columns and labels:
[1] = target: T1, HDAC1 (Homo sapiens, UniProt Q13547); experiment: Fluor de Lys HDAC1 assay kit; format: biochemical; conditions: three independent experiments, mean ± SD
T1 construct: purchased Enzo Life Sciences BML-AK511
Description: (§1) The generated fluorescence after the deacetylation of HDAC could be detected at the wavelengths of 485 nm (excitation) and 530 nm (emission) using the microplate reader (PerkinElmer, USA). The dose response of inhibition experiment was carried out in triplicate, and the IC50 data was calculated by GraphPad Prism 5.

[2] = target: T2, HDAC6 (Homo sapiens, UniProt Q9UBN7); experiment: Fluor de Lys HDAC6 assay kit; format: biochemical
T2 construct: purchased Enzo Life Sciences BML-AK516
T2 sequence (Q9UBN7 1-1215): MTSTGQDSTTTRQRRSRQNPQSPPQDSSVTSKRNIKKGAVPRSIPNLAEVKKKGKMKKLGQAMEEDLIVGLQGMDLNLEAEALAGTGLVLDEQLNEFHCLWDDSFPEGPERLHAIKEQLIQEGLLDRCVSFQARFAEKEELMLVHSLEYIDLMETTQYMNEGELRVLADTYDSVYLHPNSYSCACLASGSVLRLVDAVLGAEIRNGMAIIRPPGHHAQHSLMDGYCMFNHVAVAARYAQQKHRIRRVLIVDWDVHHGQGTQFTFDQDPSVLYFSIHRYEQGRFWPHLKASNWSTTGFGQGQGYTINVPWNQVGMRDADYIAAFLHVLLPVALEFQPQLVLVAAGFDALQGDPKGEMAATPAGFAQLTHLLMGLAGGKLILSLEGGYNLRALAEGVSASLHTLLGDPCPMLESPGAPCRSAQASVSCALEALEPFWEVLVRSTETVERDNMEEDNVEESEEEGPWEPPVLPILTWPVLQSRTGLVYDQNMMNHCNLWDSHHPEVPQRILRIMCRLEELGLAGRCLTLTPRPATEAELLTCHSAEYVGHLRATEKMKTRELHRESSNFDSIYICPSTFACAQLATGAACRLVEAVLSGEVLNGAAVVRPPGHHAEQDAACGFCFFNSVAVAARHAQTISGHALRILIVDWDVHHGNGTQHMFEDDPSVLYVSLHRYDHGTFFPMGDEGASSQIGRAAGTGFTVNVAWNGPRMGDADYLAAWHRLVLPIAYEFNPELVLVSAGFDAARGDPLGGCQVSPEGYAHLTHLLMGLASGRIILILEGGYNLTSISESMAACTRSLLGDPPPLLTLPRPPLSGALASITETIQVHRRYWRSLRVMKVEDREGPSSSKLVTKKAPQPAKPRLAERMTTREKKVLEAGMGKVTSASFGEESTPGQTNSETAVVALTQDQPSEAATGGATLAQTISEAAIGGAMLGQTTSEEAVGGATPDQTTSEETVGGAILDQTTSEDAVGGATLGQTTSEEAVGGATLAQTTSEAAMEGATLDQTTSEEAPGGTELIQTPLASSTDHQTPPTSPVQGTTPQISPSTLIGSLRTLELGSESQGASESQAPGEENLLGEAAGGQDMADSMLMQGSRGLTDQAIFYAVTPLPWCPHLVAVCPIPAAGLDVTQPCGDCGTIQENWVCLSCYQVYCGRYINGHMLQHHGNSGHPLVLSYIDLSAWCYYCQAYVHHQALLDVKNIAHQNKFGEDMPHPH
Description: as §1

[3] = tested on: acetyl-histone H3; experiment: Western blot, acetylation of histone H3 in Hela cells; format: cell-based, human; conditions: 20 and 40 μM, 48 h
Description: (§2) Afterwards, the Hela cells were collected using centrifugation, and were then lysed by the lysate, which were carried out further centrifugation at 12,000 rpm for 30 min. The protein of supernatant obtained by centrifugation was quantified using the BCA kit (Beijing Solarbio Science & Technology Co., Ltd.), and the protein extracts were mixed with the SDS-PAGE protein loading buffer (Beijing Solarbio Science & Technology Co., Ltd.), which were subject to 100°C water bath for 10 min to sufficiently denaturate. The gel was gelatinized using the SDS Gel Kit (Beijing Solarbio Science & Technology Co., Ltd.) and protein extracts were separated by protein SDS-polyacrylamide gel electrophoresis and then transferred to Immobilon-NC Membrane (Beijing Solarbio Science & Technology Co., Ltd.). After the blocking with 5% non-fat dried milk in TBS for 90 min at room temperature, the membranes were incubated overnight with specific primary antibodies (AFFINITY BIOSCIENCE) at 4°C, which were further incubated with secondary antibodies for 2 h after washing three times with TBST. The chemiluminescence analysis system was applied to label the target protein with a specific primary antibody and the target protein was detected using a specific antibody.

[4] = tested on: acetyl-α-tubulin; experiment: Western blot, acetylation of α-tubulin in Hela cells; format: cell-based, human; conditions: 20 and 40 μM, 48 h
Description: as §2

[5] = tested on: A549; experiment: MTT anti-proliferative assay, A549; conditions: Homo sapiens, A549, 48 h, read-out: IC50 A549
Description: (§3) The antitumor bioactivities of the tittle compounds in vitro were firstly evaluated against four different human tumor cell lines [breast lung cancer (A549), cervical cancer (Hela), liver cancer (HepG2), breast cancer (MCF-7)] via MTT assay, and a normal cell line [human lung fibroblast (WI-38)] was applied to assess the safety of the synthesized compounds. […] In this study, the tested compounds were diluted to the required concentration with culture medium, and growth inhibitory effects against the cell lines of the tittle compounds were determined by MTT colorimetric assay. […] The microplate reader was adopted to record the absorbance at 490 nm for each well of the plates.

[6] = tested on: Hela; experiment: MTT anti-proliferative assay, Hela; conditions: Homo sapiens, 48 h, read-out: IC50 Hela
Description: as §3

[7] = tested on: HepG2; experiment: MTT anti-proliferative assay, HepG2; conditions: Homo sapiens, HepG2, 48 h, read-out: IC50 HepG2
Description: as §3

[8] = tested on: MCF-7; experiment: MTT anti-proliferative assay, MCF-7; conditions: Homo sapiens, MCF7, 48 h, read-out: IC50 MCF-7
Description: as §3

[9] = tested on: WI-38; experiment: MTT cytotoxicity assay, normal cell line WI-38; conditions: Homo sapiens, WI-38, 48 h, read-out: IC50 WI-38
Description: as §3

[10] = tested on: HDACs extracted from Hela cervical cancer cells; experiment: Enzyme inhibition assay, Hela nuclear extract (HDAC Inhibitor Drug Screening Kit); conditions: read-out: Hela nuclear extract IC50; mean ± SD of three experiments

T1 sequence (Q13547 whole entry): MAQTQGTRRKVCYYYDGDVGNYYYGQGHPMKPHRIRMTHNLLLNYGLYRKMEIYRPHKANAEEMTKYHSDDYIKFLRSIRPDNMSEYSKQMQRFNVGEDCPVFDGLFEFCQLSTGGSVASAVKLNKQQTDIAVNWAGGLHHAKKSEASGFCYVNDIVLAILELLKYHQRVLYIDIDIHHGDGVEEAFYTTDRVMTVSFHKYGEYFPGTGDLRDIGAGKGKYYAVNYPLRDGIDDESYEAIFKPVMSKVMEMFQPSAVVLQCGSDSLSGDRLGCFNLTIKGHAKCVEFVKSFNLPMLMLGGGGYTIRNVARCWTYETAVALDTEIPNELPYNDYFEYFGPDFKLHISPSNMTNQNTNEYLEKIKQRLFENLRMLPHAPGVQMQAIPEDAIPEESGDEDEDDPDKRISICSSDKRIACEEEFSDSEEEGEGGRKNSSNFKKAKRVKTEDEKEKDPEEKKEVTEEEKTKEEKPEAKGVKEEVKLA

With `O=C(CCCCCNC(=O)c1ccc(-c2ccccc2)cc1)NCCO` [b8, N-(6-((2-hydroxyethyl)amino)-6-oxohexyl)-[1, 1'-biphenyl]-4-carboxamide] the IC50 [1] was 56.5 ± 2.7 µM, the “inhibitory activity on HDAC6 relative to HDAC1” value ([2]; HDAC6 vs HDAC1) was “more than ten folds” and the IC50 ([2]; three independent experiments, mean ± SD) was 4.2 ± 1.27 µM. For the same compound, the “acetylation level of histone H3” value [3] was “insensitive”, the “acetylation level of α-Tubulin” value [4] was “increase” and the melting point was 147.6 to 148.5 °C. It also gave an IC50 [5] of 26.5 ± 0.26 µM, an IC50 [6] of 13.7 ± 1.31 µM and an IC50 [7] of 28.4 ± 0.65 µM. It also gave an IC50 [8] of 40.1 ± 7.05 µM, an IC50 [9] of 95.9 ± 4.28 µM and an IC50 [10] of 22.5 ± 5.2 µM.
